Like-named read-outs stand apart in the source and are kept apart here.
Tests used:
Test in all cases: Cell proliferation, CTG 3D, 7 d
Format in all cases: cell-based
TOV-21G = details: Homo sapiens, TOV21G
Method: (§1) On Day-1, cells were plated in 384-well round-bottom ultra-low adhesion plates (cat. Corning 3830, with cell density adjusted according to Table 3. The assay plate was then centrifuged at 1000 rpm for 1 minute to ensure even distribution of cells. The plate was incubated at 37° C. in a 5% CO2 atmosphere (It is worth noting that for SW1271 cell plate, it needs to be incubated in an incubator without additional CO2).
(§2) On Day 0, Example 24 or A122 was added to each well using a Tecan HP D300E dispenser, with a 3-fold dilution across 9 doses. The final concentration of DMSO was normalized to 0.2%. The assay plate was then centrifuged at 1000 rpm for 1 minute and incubated for 7 days.
(§3) On Day 7, CellTiter-Glo (CTG) 3D reagent (Promega G9683) was dispensed into each well of a 384-well plate using a multi-drop dispenser (Thermo Scientific 66413). A liquid handling automation workstation (Bravo with a 384-well head) was used to mix the CTG reagents. Plates were left on a shaker for 30 minutes at 450 rpm, shielded from light.
(§4) For data analysis, the XL-fit software (Supplier: ID Business Solutions Ltd., Software version: XL fit 5.0) was utilized. The percentage of inhibition was calculated using the formula: Inhibition %=(Max-Sample value)/(Max-Min)×100. Curve fitting was performed as follows: For complete dose-response curves, the relative IC50 was reported from the fit. For incomplete curves, if minimal inhibition was greater than 50%, an IC50 less than the lowest compound concentration was reported. If minimal inhibition was between 20% and 50%, the bottom was locked at 0% and the IC50 was reported. If maximal inhibition was less than 50%, an IC50 greater than the highest compound concentration was reported.

KP-2 = details: Homo sapiens
Method: as §1, §2, §3, §4

DLD-1 = details: Homo sapiens
Method: as §1, §2, §3, §4

HEC-1-A = details: Homo sapiens, KRAS (G12D)
Method: as §1, §2, §3, §4

PA-1 = details: Homo sapiens; PA-1, NRAS (p.G12D)
Method: as §1, §2, §3, §4

MOLT-4 = details: Homo sapiens; MOLT-4, NRAS (p.G12C)
Method: as §1, §2, §3, §4

KU1919 = details: Homo sapiens, KU-19-19
Method: as §1, §2, §3, §4

GP5d = details: Homo sapiens, KRAS (G12D)
Method: as §1, §2, §3, §4

BEN = details: Homo sapiens, KRAS (WT ampl)
Method: as §1, §2, §3, §4

Calu-6 = details: Homo sapiens
Method: as §1, §2, §3, §4

GP2d = details: Homo sapiens, KRAS (G12D)
Method: as §1, §2, §3, §4

TF-1 = details: Homo sapiens
Method: as §1, §2, §3, §4

KMS26 = details: Homo sapiens, KMS-26; KMS26, KRAS (WT ampl)
Method: as §1, §2, §3, §4

GAK = details: Homo sapiens
Method: as §1, §2, §3, §4

RCM-1 = details: Homo sapiens; RCM-1, KRAS (G12V)
Method: as §1, §2, §3, §4

SK-N-AS = details: Homo sapiens
Method: as §1, §2, §3, §4

SKM-1 = details: Homo sapiens
Method: as §1, §2, §3, §4

NCI-H1299 = details: Homo sapiens
Method: as §1, §2, §3, §4

KYSE-30 = details: Homo sapiens
Method: as §1, §2, §3, §4

CHL1 = details: Homo sapiens, CHL-1; CHL1, KRAS (WT ampl)
Method: as §1, §2, §3, §4

LoVo = details: Homo sapiens
Method: as §1, §2, §3, §4

SW 1990 = details: Homo sapiens, SW1990; SW 1990, KRAS (G12D)
Method: as §1, §2, §3, §4

NCI-H2291 = details: Homo sapiens
Method: as §1, §2, §3, §4

RERF-LC-Ad1 = details: Homo sapiens
Method: as §1, §2, §3, §4

NCI-H2122 = details: Homo sapiens; NCI-H2122, KRAS (G12C)
Method: as §1, §2, §3, §4

HS 578T = details: Homo sapiens, HRAS (p.G12D)
Method: as §1, §2, §3, §4

NCI-H929 = details: Homo sapiens
Method: as §1, §2, §3, §4

MOLP8 = details: Homo sapiens, MOLP-8
Method: as §1, §2, §3, §4

CO[C@@H](C)c1ncc(N2CCN(C)CC2)cc1-c1c2c3cc(cc4c3n1CCC4)-c1csc(n1)C[C@H](NC(=O)[C@H]1[C@H](C)[C@@H]1C)C(=O)N1CCC[C@H](N1)C(=O)OCC(C)(C)C2 (atropisomer, axis not shown; (M)) [Example 24, (1r,2R,3S)-N-[(7S,13S)-(20M)-20-[2-[(1S)-1-methoxyethyl]-5-(4-methylpiperazin-1-yl)-3-pyridyl]-17,17-dimethyl-8,14-dioxo-15-oxa-4-thia-9,21,30,31-tetrazahexacyclo[23.3.1.1^2,5.1^9,13.0^19,27.0^21,26]hentriaconta-1 (28),2,5 (31), 19,25 (29),26-hexaen-7-yl]-2,3-dimethyl-cyclopropanecarboxamide]
IC50 (TOV-21G; TOV-21G, KRAS (G13C), read-out: IC50): 4.9 nM | IC50 (KP-2; KP-2, KRAS (G12R), read-out: IC50): 0.35 nM | IC50 (DLD-1; DLD-1, KRAS (G13D), read-out: IC50): 18 nM | IC50 (HEC-1-A): 1.6 nM | IC50 (PA-1): 0.46 nM | IC50 (MOLT-4): 1000 nM | IC50 (KU1919; KU1919, NRAS (p.Q61R), read-out: IC50): 2.2 nM | IC50 (GP5d): 0.48 nM | IC50 (BEN): 40 nM | IC50 (Calu-6; Calu-6, KRAS (Q61K), read-out: IC50): 0.65 nM | IC50 (GP2d): 0.63 nM | IC50 (TF-1; TF-1, NRAS (p.Q61P), read-out: IC50): 130 nM | IC50 (KMS26): 50 nM | IC50 (GAK; GAK, NRAS (p.Q61L), read-out: IC50): 10 nM | IC50 (RCM-1): 2.2 nM | IC50 (SK-N-AS; NRAS (p.Q61K), read-out: IC50): 0.47 nM | IC50 (SKM-1; SKM-1, KRAS (K117N), read-out: IC50): 0.93 nM | IC50 (NCI-H1299; NCI-H1299, NRAS (p.Q61K), read-out: IC50): 0.93 nM | IC50 (KYSE-30; KYSE-30, HRAS (p.Q61L), read-out: IC50): 0.46 nM | IC50 (CHL1): 8.1 nM | IC50 (LoVo; KRAS (G13D), read-out: IC50): 0.55 nM | IC50 (SW 1990): 1.6 nM | IC50 (NCI-H2291; NCI-H2291, KRAS (G12F), read-out: IC50): 0.55 nM | IC50 (RERF-LC-Ad1; RERF-LC-Ad1, KRAS (G12A), read-out: IC50): 0.3 nM | IC50 (NCI-H2122): 0.39 nM | IC50 (HS 578T): 1.7 nM | IC50 (NCI-H929; NCI-H929, NRAS (p.G13D), read-out: IC50): 7.3 nM | IC50 (MOLP8; MOLP8, NRAS (p.Q61L), read-out: IC50): 11 nM

CCn1c(-c2cc(N3CCN(C)CC3)cnc2[C@H](C)OC)c2c3cc(ccc31)-c1csc(n1)C[C@H](NC(=O)[C@H]1C[C@@H]1C)C(=O)N1CCC[C@H](N1)C(=O)OCC(C)(C)O2 [Example A122, reference compound]
IC50 (TOV-21G): 33 nM | IC50 (KP-2): 0.43 nM | IC50 (DLD-1; DLD-1): 20 nM | IC50 (HEC-1-A): 1.9 nM | IC50 (PA-1): 0.42 nM | IC50 (MOLT-4): 1000 nM | IC50 (KU1919): 2.8 nM | IC50 (GP5d): 0.41 nM | IC50 (BEN): 43 nM | IC50 (Calu-6; Calu-6): 1.3 nM | IC50 (GP2d): 0.55 nM | IC50 (TF-1; TF-1): 100 nM | IC50 (KMS26): 48 nM | IC50 (GAK): 19 nM | IC50 (RCM-1): 6.5 nM | IC50 (SK-N-AS): 1.9 nM | IC50 (SKM-1; SKM-1): 1.3 nM | IC50 (NCI-H1299; NCI-H1299): 1.5 nM | IC50 (KYSE-30; KYSE-30): 1 nM | IC50 (CHL1): 9.3 nM | IC50 (LoVo): 0.36 nM | IC50 (SW 1990): 1.5 nM | IC50 (NCI-H2291; NCI-H2291): 1 nM | IC50 (RERF-LC-Ad1): 0.22 nM | IC50 (NCI-H2122): 0.62 nM | IC50 (HS 578T): 3.1 nM | IC50 (NCI-H929; NCI-H929): 8.7 nM | IC50 (MOLP8): 22 nM

— US20240417410A1, “TRICYCLIC COMPOUNDS FOR THE TREATMENT OF CANCER” (Hoffmann-La Roche Inc., priority 2023, published 2024)
